Consider 26 compounds from US20240239775A1, “FXR REGULATOR, PREPARATION METHOD THEREFOR, PHARMACEUTICAL COMPOSITION THEREOF AND USE THEREOF” (QINGDAO RUIJI MEDICAL TECHNOLOGY CO., LTD., priority 2021, published 2024).

A word on the IC50: it is the point on the concentration scale where inhibition reaches its midpoint. A low value points to greater potency in that assay.

The target of this assay is T1, FXR (Homo sapiens, UniProt Q96RI1).
T1 construct: 5 μL of 20 nM FXR-LBD Complete Coregulator buffer G; purchased ThermoFisher PV4833
T1 sequence (Q96RI1 262-486 limits assumed): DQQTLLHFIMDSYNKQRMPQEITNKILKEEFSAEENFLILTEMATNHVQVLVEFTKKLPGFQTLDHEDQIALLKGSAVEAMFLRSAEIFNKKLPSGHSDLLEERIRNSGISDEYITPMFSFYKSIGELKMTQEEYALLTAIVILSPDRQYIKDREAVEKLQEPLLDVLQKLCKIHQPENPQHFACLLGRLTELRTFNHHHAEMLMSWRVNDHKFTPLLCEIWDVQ
The assay is described as follows: FXR antagonist screening by TR-FRET (LanthaScreen TR-FRET FXR co-activation assay kit). Type of assay: biochemical. The following applies: Table 1.2, FXR antagonistic activity; TR-FRET with CDCA; geometric means of at least two independent runs. The essentials:
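FXR-LBD (20 nM working solution) mixed with compound, CDCA (200 μM working solution) as agonist, Fluorescein-SRC2-2 and Tb-anti-GST antibody in Coregulator buffer G; 10 h at room temperature. Coactivator recruitment read by TR-FRET, triplicate wells.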
On the technique in general: TR-FRET usually uses a lanthanide donor and a delayed reading to cut background.

The compound `CCOC(=O)c1oc2ccc(S(=O)(=O)N(CCc3ccccc3)c3ccccc3N3CCC4(CCN(C(=O)c5sccc5Br)C4)CC3)cc2c1C` [Example M10-148] returned an IC50 of 50 to 100 µM.

On to `CCOC(=O)c1oc2ccc(S(=O)(=O)N(CCc3ccccc3)c3ccccc3N3CC4(CCN(C(=O)c5sccc5Br)CC4)C3)cc2c1C` [Example M10-149, Ethyl 5-(N-(2-(7-(3-bromothiophene-2-carbonyl)-2,7-diazaspiro[3.5]nonan-2-yl)phenyl)-N-phenethylsulfamoyl)-3-methylbenzofuran-2-carboxylate], for which the IC50 was in the range of 50 to 100 µM.

With `CCOC(=O)c1oc2ccc(S(=O)(=O)N(CCc3ccccc3)c3ccccc3N3CCC4(CC3)CN(C(=O)c3sccc3Br)C4)cc2c1C` [Example M10-150], the IC50 was in the range of 50 to 100 µM.

In the case of `CCOC(=O)c1oc2ccc(S(=O)(=O)N(CCc3ccccc3)c3ccccc3N3CC4CC(C3)N4C(=O)c3sccc3Br)cc2c1C` [Example M10-151, Ethyl 5-(N-(2-(6-(3-bromothiophene-2-carbonyl)-3,6-diazabicyclo[3.1.1]heptan-3-yl)phenyl)-N-phenethylsulfamoyl)-3-methylbenzofuran-2-carboxylate], the IC50 lay within 50 to 100 µM.

`CCOC(=O)c1oc2ccc(S(=O)(=O)N(CCc3ccccc3)c3ccccc3N3CCN(C(=O)c4sccc4Br)C[C@@H]3C)cc2c1C` [Example M10-152, (S)-ethyl-5-(N-(2-(4-(3-bromothiophene-2-carbonyl)-2-methylpiperazin-1-yl)phenyl)-N-phenethylsulfamoyl)-3-methylbenzofuran-2-carboxylate] displayed a 50% inhibitory concentration (IC50) of 50 to 100 µM.

`CCOC(=O)c1oc2ccc(S(=O)(=O)N(CCc3ccccc3)c3ccccc3N3CCN(C(=O)c4sccc4Br)C[C@H]3C)cc2c1C` [Example M10-153, (R)-ethyl-5-(N-(2-(4-(3-bromothiophene-2-carbonyl)-2-methylpiperazin-1-yl)phenyl)-N-phenethylsulfamoyl)-3-methylbenzofuran-2-carboxylate] registered a half-inhibitory concentration (IC50) of 50 to 100 µM.

In turn, `CCOC(=O)c1oc2ccc(S(=O)(=O)N(CCc3ccccc3)c3ccccc3N3CCCN(C(=O)c4sccc4Br)CC3)cc2c1C` [Example M10-154, Ethyl 5-(N-(2-(4-(3-bromothiophene-2-formyl)-1,4-diazepin-1-yl)phenyl)-N-phenethylsulfamoyl)-3-methylbenzofuran-2-carboxylate] yielded an IC50 of 50 to 100 µM.

Consider `CCOC(=O)c1oc2ccc(S(=O)(=O)N(CCc3ccccc3)c3ccccc3N3C4CCC3CN(C(=O)c3sccc3Br)C4)cc2c1C` [Example M10-155, Ethyl 5-(N-(2-(3-(3-bromothiophene-2-formyl)-3,8-diazepine[3.2.1]cyclooctan-8-yl)phenyl)-N-phenethylsulfamoyl)3-methylbenzofuran-2-carboxylate], for which the 50% inhibitory concentration (IC50) lay in the range of 50 to 100 µM.

Turning to `CCOC(=O)c1oc2ccc(S(=O)(=O)N(CCc3ccccc3)c3ccccc3N3CCN(C(=O)c4sccc4Br)C(C)C3)cc2c1C` (centres unmarked) [Example M10-156, Ethyl 5-(N-(2-(4-(3-bromothiophene-2-formyl)-3-methylpiperazin-1-yl)phenyl)-N-phenethylsulfamoyl)3-methylbenzofuran-2-carboxylate], the half-inhibitory concentration (IC50) is 50 to 100 µM.

The compound `CCOC(=O)c1oc2ccc(S(=O)(=O)N(CCc3ccccc3)c3ccccc3N3CC4CC3CN4C(=O)c3sccc3Br)cc2c1C` (centres unmarked) [Example M10-157, Ethyl 5-(N-(2-(5-(3-bromothiophene-2-formyl)-2,5-diazabicyclo[2.2.1]hept-2-yl)phenyl)-N-phenethylsulfamoyl)3-methylbenzofuran-2-carboxylate] showed an IC50 of 50 to 100 µM.

The compound `CCOC(=O)c1sc2ccc(S(=O)(=O)N(CCc3ccccc3)c3ccccc3N3CCN(C(=O)c4sccc4Br)CC3)cc2c1C` [Example M10-158, ethyl 5-(N-(2-(4-(3-bromothiophene-2-carbonyl)piperazin-1-yl)phenyl)-N-phenethylsulfamoyl)-3-toluothiophene-2-carboxylate] displayed a concentration for half-maximal inhibition (IC50) of 50 to 100 µM.

Consider `CCOC(=O)c1cc2cc(S(=O)(=O)N(CCc3ccccc3)c3ccccc3N3CCN(C(=O)c4sccc4Br)CC3)ccc2s1` [Example M10-159, Ethyl 5-(N-(2-(4-(3-bromothiophene-2-carbonyl)piperazin-1-yl)phenyl)-N-phenethylsulfamoyl)benzo[b]thiophene-2-carboxylate], for which the concentration for half-maximal inhibition (IC50) was 50 to 100 µM.

On to `CCOC(=O)c1cc2ccc(S(=O)(=O)N(CCc3ccccc3)c3ccccc3N3CCN(C(=O)c4sccc4Br)CC3)cc2s1` [Example M10-160, Ethyl 6-(N-(2-(4-(3-bromothiophene-2-carbonyl)piperazin-1-yl)phenyl)-N-phenethylsulfamoyl)benzo[b]thiophene-2-carboxylate], for which the concentration for half-maximal inhibition (IC50) was 50 to 100 µM.

In the case of `CCOC(=O)c1[nH]c2ccc(S(=O)(=O)N(CCc3ccccc3)c3ccccc3N3CCN(C(=O)c4sccc4Br)CC3)cc2c1Cl` [Example M10-161, Ethyl 5-(N-(2-(4-(3-bromothiophene-2-carbonyl)piperazin-1-yl)phenyl)-N-phenethylsulfamoyl)-3-chloro-1H-indole-2-carboxylate], the IC50 lay in the range of 50 to 100 µM.

`CCOC(=O)c1cc2cc(S(=O)(=O)N(CCc3ccccc3)c3ccccc3N3CCN(C(=O)c4sccc4Br)CC3)ccc2o1` [Example M10-162, Ethyl 5-(N-(2-(4-(3-bromothiophene-2-formyl)piperazin-1-yl)phenyl)-N-phenethylsulfamoyl)benzofuran-2-carboxylate] yielded an IC50 of 50 to 100 µM.

Turning to `CCOC(=O)c1oc2cc(S(=O)(=O)N(CCc3ccccc3)c3ccccc3N3CCN(C(=O)c4sccc4Br)CC3)ccc2c1C` [Example M10-163, Ethyl 6-(N-(2-(4-(3-bromothiophene-2-formyl)piperazin-1-yl)phenyl)-N-phenethylsulfamoyl)-3-methylbenzofuran-2-carboxylate], the IC50 is 50 to 100 µM.

The compound `CCOC(=O)c1cc2ccc(S(=O)(=O)N(CCc3ccccc3)c3ccccc3N3CCN(C(=O)c4sccc4Br)CC3)cc2o1` [Example M10-164, Ethyl 6-(N-(2-(4-(3-bromothiophene-2-formyl)piperazin-1-yl)phenyl)-N-phenethylsulfamoyl)benzofuran-2-carboxylate] yielded an IC50 of 50 to 100 µM.

Consider `CCOC(=O)c1sc2ccc(S(=O)(=O)N(CCc3ccc(Cl)cc3)c3ccccc3N3CCN(C(=O)c4sccc4Br)CC3)cc2c1C` [Example M10-165, ethyl 5-(N-(2-(4-(3-bromothiophene-2-carbonyl)piperazin-1-yl)phenyl)-N-(4-chlorophenylethyl)sulfamoyl)-3-methylbenzothiophene-2-carboxylate], for which the half-maximal inhibitory concentration (IC50) is 50 to 100 µM.

The compound `CCOC(=O)c1sc2ccc(S(=O)(=O)N(CCc3ccc(C)cc3)c3ccccc3N3CCN(C(=O)c4sccc4Br)CC3)cc2c1C` [Example M10-166, Ethyl 5-(N-(2-(4-(3-bromothiophene-2-carbonyl)piperazin-1-yl)phenyl)-N-(4-methylphenylethyl)sulfamoyl)-3-methylbenzothiophene-2-carboxylate] had an IC50 of 50 to 100 µM.

As for `CCOC(=O)c1sc2ccc(S(=O)(=O)N(CCc3ccc(C(=O)OC)cc3)c3ccccc3N3CCN(C(=O)c4sccc4Br)CC3)cc2c1C` [Example M10-167, ethyl 5-(N-(2-(4-(3-bromothiophene-2-carbonyl)piperazin-1-yl)phenyl)-N-(4-(methoxycarbonyl)phenethyl)sulfamoyl)-3-methylbenzothiophene-2-carboxylate], the IC50 was in the range of 50 to 100 µM.

`CCOC(=O)c1sc2ccc(S(=O)(=O)N(CCc3ccc(C#N)cc3)c3ccccc3N3CCN(C(=O)c4sccc4Br)CC3)cc2c1C` [Example M10-168] yielded a half-maximal inhibitory concentration (IC50) of 50 to 100 µM.

`CCOC(=O)c1sc2ccc(S(=O)(=O)N(CCc3ccc(C(F)(F)F)cc3)c3ccccc3N3CCN(C(=O)c4sccc4Br)CC3)cc2c1C` [Example M10-169, Ethyl 5-(N-(2-(4-(3-bromothiophene-2-carbonyl)piperazin-1-yl)phenyl)-N-(4-(trifluoromethyl)phenethyl)sulfamoyl)-3-methylbenzothiophene-2-carboxylate]: the 50% inhibitory concentration (IC50) was in the range of 50 to 100 µM.

In turn, `CCOC(=O)c1sc2ccc(S(=O)(=O)N(CCc3cccc(OC)c3)c3ccccc3N3CCN(C(=O)c4sccc4Br)CC3)cc2c1C` [Example M10-170, Ethyl 5-(N-(2-(4-(3-bromothiophene-2-carbonyl)piperazin-1-yl)phenyl)-N-(3-methoxyphenethyl)sulfamoyl)-3-methylbenzothiophene-2-carboxylate] gave a half-inhibitory concentration (IC50) of 50 to 100 µM.

For `CCOC(=O)c1sc2ccc(S(=O)(=O)N(CCc3cccc(Cl)c3)c3ccccc3N3CCN(C(=O)c4sccc4Br)CC3)cc2c1C` [Example M10-171, Ethyl 5-(N-(2-(4-(3-bromothiophene-2-carbonyl)piperazin-1-yl)phenyl)-N-(3-chlorophenylethyl)sulfamoyl)-3-methylbenzothiophene-2-carboxylate], the concentration for half-maximal inhibition (IC50) is 50 to 100 µM.

For the compound `CCOC(=O)c1sc2ccc(S(=O)(=O)N(CCc3ccccc3Cl)c3ccccc3N3CCN(C(=O)c4sccc4Br)CC3)cc2c1C` [Example M10-172, Ethyl 5-(N-(2-(4-(3-bromothiophene-2-carbonyl)piperazin-1-yl)phenyl)-N-(2-chlorophenylethyl)sulfamoyl)-3-methylbenzothiophene-2-carboxylate], the half-maximal inhibitory concentration (IC50) was 50 to 100 µM.

In turn, `CCOC(=O)c1sc2ccc(S(=O)(=O)N(CCc3ccccc3OC)c3ccccc3N3CCN(C(=O)c4sccc4Br)CC3)cc2c1C` [Example M10-173, Ethyl 5-(N-(2-(4-(3-bromothiophene-2-carbonyl)piperazin-1-yl)phenyl)-N-(2-methoxyphenethyl)sulfamoyl)-3-methylbenzothiophene-2-carboxylate] registered a half-inhibitory concentration (IC50) of 50 to 100 µM.
